Laboratory results: patent US20230257396A1, “MACROCYCLES AND THEIR USE” (BLOSSOMHILL THERAPEUTICS, INC., priority 2020, published 2023)
Residue numbers refer to the chain shown, from its start.

Columns and labels:
Assay in all cases: KINOMEscan kinase binding assay (Eurofins/DiscoveRx), % Ctrl
Conditions in all cases: 1 μM
kinases [1] = target: T1, kinases (Homo sapiens, UniProt P00533, DEL752-759)
T1 construct: purchased Eurofins/DiscoveRx; host or cells: E. coli BL21-derived host (T7 phage display) for most kinases; HEK-293 for the rest
Procedure, shortened: (§1)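 Competition binding, 1 h RT: phage-tagged or HEK-293-expressed DNA-tagged kinase + immobilized ligand + compound. Eluate kinase by qPCR. % Ctrl = (test − positive ctrl)/(negative ctrl − positive ctrl) × 100; lower means stronger binding.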

kinases [2] = target: T2, kinases (Homo sapiens, UniProt P36888, D835V)
T2 construct: purchased Eurofins/DiscoveRx; host or cells: E. coli BL21-derived host (T7 phage display) for most kinases; HEK-293 for the rest
T2 sequence (P36888 27-993 D835V): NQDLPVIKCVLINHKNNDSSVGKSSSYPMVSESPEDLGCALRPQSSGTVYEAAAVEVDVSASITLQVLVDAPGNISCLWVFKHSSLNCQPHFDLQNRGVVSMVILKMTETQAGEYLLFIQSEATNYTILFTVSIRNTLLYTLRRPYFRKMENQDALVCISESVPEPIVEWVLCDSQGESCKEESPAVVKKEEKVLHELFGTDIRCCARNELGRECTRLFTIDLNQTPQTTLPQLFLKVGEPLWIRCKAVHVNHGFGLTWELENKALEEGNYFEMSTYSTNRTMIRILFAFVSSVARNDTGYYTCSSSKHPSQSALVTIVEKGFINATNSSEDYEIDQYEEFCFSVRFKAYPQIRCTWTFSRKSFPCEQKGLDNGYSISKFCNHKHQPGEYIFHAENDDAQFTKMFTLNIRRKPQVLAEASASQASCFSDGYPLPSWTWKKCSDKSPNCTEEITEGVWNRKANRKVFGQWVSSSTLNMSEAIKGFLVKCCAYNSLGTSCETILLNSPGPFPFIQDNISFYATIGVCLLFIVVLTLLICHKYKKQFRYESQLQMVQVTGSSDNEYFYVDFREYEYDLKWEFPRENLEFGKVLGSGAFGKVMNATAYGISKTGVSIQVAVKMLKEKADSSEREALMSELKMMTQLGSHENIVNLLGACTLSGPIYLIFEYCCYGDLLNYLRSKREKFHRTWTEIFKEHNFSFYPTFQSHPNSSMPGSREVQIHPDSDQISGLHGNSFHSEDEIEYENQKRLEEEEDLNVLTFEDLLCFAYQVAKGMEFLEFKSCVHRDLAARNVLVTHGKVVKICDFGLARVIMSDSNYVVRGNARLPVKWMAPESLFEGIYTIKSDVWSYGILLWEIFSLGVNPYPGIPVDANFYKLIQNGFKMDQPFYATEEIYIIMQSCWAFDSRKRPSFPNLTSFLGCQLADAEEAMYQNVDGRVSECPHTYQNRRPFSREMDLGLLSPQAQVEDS
Procedure, shortened: as §1

kinases [3] = target: T3, kinases (Homo sapiens, UniProt P00533, G719C)
T3 construct: purchased Eurofins/DiscoveRx; host or cells: E. coli BL21-derived host (T7 phage display) for most kinases; HEK-293 for the rest
Procedure, shortened: as §1

kinases [4] = target: T4, kinases (Homo sapiens, UniProt P10721, V559D/V654A)
T4 construct: purchased Eurofins/DiscoveRx; host or cells: E. coli BL21-derived host (T7 phage display) for most kinases; HEK-293 for the rest
Procedure, shortened: as §1

kinases [5] = target: T5, kinases (Homo sapiens, UniProt P00533, G719S)
T5 construct: purchased Eurofins/DiscoveRx; host or cells: E. coli BL21-derived host (T7 phage display) for most kinases; HEK-293 for the rest
Procedure, shortened: as §1

kinases [6] = target: T6, kinases (Homo sapiens, UniProt P36888, R834Q)
T6 construct: purchased Eurofins/DiscoveRx; host or cells: E. coli BL21-derived host (T7 phage display) for most kinases; HEK-293 for the rest
T6 sequence (P36888 27-993 R834Q): T2 sequence (P36888 27-993 D835V) with R808Q, V809D
Procedure, shortened: as §1

T4 sequence (P10721 26-976 V559D/V654A): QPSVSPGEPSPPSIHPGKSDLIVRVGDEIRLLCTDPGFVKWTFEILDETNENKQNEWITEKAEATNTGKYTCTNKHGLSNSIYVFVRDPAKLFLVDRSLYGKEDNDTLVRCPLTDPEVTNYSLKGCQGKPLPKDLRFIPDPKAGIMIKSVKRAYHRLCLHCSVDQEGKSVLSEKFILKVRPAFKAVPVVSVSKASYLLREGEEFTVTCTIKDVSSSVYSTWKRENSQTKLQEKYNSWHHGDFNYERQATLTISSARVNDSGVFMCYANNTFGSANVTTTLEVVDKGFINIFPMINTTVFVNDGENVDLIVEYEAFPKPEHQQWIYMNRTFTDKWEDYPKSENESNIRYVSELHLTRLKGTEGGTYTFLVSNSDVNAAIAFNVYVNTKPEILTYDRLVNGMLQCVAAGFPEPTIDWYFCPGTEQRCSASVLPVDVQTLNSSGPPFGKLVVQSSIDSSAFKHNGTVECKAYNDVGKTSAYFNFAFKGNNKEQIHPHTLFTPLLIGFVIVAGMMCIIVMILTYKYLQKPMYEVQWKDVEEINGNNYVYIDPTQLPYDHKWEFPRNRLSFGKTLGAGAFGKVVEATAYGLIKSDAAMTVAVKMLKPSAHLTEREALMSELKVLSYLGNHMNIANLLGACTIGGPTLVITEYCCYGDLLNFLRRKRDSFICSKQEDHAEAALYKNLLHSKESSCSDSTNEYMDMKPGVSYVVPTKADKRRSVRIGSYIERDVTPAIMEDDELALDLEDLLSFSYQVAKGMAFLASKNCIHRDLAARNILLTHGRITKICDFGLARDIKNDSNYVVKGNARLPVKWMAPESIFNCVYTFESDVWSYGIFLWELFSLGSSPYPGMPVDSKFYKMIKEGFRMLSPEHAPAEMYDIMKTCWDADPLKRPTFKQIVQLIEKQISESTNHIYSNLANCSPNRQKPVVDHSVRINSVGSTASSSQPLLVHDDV

% Ctrl, EGFR(S752-I759del) (kinases [1]; EGFR(S752-I759del)) [% Ctrl]	% Ctrl, FLT3(D835V) (kinases [2]; FLT3(D835V)) [% Ctrl]	% Ctrl, EGFR(G719C) (kinases [3]; EGFR(G719C)) [% Ctrl]	% Ctrl, KIT(V559D, V654A) (kinases [4]; KIT(V559D, V654A)) [% Ctrl]	% Ctrl, EGFR(G719S) (kinases [5]; EGFR(G719S)) [% Ctrl]	% Ctrl, FLT3(R834Q) (kinases [6]; FLT3(R834Q)) [% Ctrl]	% Ctrl, EGFR(S752-I759del) (kinases [1]; target EGFR(S752-I759del)) [% Ctrl]	% Ctrl, FLT3(D835V) (kinases [2]; target FLT3(D835V)) [% Ctrl]	% Ctrl, EGFR(G719C) (kinases [3]; target EGFR(G719C)) [% Ctrl]	% Ctrl, KIT(V559D, V654A) (kinases [4]; target KIT(V559D, V654A)) [% Ctrl]	% Ctrl, EGFR(G719S) (kinases [5]; target EGFR(G719S)) [% Ctrl]	% Ctrl, FLT3(R834Q) (kinases [6]; target FLT3(R834Q)) [% Ctrl]	Compound
90	2.3	92	83	99	49							Cc1cc2c([nH]1)/C=C1\C(=O)Nc3cc(Cl)c(cc31)OCCO[C@@H](C(=O)NC1CNC1)CN(C)C2=O [Ex. 133, [7R,16a(17)Z]-N-(azetidin-3-yl)-19-chloro-2,5-dimethyl-4,16-dioxo-4,5,6,7,9,10,15,16-octahydro-1H-12,14-(ethanediylidene)dipyrrolo[3,2-i:3′,4′-l][1,4,7]dioxazacyclopentadecine-7-carboxamide]
88	3.9	89	64	92	59							Cc1cc2c([nH]1)/C=C1\C(=O)Nc3cc(Cl)c(cc31)OCCO[C@@H](C(=O)NC1CCNCC1)CN(C)C2=O [Ex. 134, [7R,16a(17)Z]-19-chloro-2,5-dimethyl-4,16-dioxo-N-(piperidin-4-yl)-4,5,6,7,9,10,15,16-octahydro-1H-12,14-(ethaneidylidene)dipyrrolo[3,2-i:3′,4′-l][1,4,7]dioxazacyclopentadecine-7-carboxamide]
92	6	82	59	92	63							CNC(=O)[C@H]1CN(C)C(=O)c2cc(C)[nH]c2/C=C2\C(=O)Nc3cc(Cl)c(cc32)OCCO1 [Ex. 135, [7R,16a(17)Z]-19-chloro-N,2,5-trimethyl-4,16-dioxo-4,5,6,7,9,10,15,16-octahydro-1H-12,14-(ethanediylidene)dipyrrolo[3,2-i:3′,4′-l][1,4,7]dioxazacyclopentadecine-7-carboxamide]
95	2	90	54	92	50							Cc1cc2c([nH]1)/C=C1\C(=O)Nc3cc(Cl)c(cc31)OCCO[C@@H](C(=O)N[C@@H]1CCNC1)CN(C)C2=O [Ex. 136, [7R,16a(17)Z]-19-chloro-2,5-dimethyl-4,16-dioxo-N-[(3R)-pyrrolidin-3-yl]-4,5,6,7,9,10,15,16-octahydro-1H-12,14-(ethanediylidene)dipyrrolo[3,2-i:3′,4′-l][1,4,7]dioxazacyclopentadecine-7-carboxamide]
98	8.5	100	73	98	65							Cc1cc2c([nH]1)/C=C1\C(=O)Nc3cc(Cl)c(cc31)OCCO[C@@H](C(=O)N(C)C)CN(C)C2=O [Ex. 137, [7R,16a(17)Z]-19-chloro-N,N,2,5-tetramethyl-4,16-dioxo-4,5,6,7,9,10,15,16-octahydro-1H-12,14-(ethanediylidene)dipyrrolo[3,2-i:3′,4′-l][1,4,7]dioxazacyclopentadecine-7-carboxamide]
						92	18	100	62	95	99	Cc1cc2c([nH]1)/C=C1\C(=O)Nc3cc(Cl)c(cc31)OCCO[C@@H](C(=O)N1CCN(C)CC1)CN(C)C2=O [Ex. 138, [7R,16a(17)Z]-19-chloro-2,5-dimethyl-7-(4-methylpipearazine-1-carbonyl)-6,7,9,10-tetrahydro-1H-12,14-(ethanediylidene)dipyrrolo[3,2-i:3′,4′-l][1,4,7]dioxazacyclopentadecine-4,16(5H,15H)-dione]
						74	0.9	82	75	84	39	Cc1cc2c([nH]1)/C=C1\C(=O)Nc3ccc(cc31)-c1c(noc1C)CNCCN(C)C2=O [Ex. 139, [3a(4)Z]-6,9,16-trimethyl-10,11,12,13-tetrahydro-2H-1,17-(ethanediylidene)[1,2]oxazolo[4,3-m]dipyrrolo[3,2-f:3′,4′-i][1,4]diazacyclopentadecine-3,8(5H,9H)-dione]
						86	0.3	100	33	94	33	CN1CCOCCOc2cc3c(cc2Cl)NC(=O)/C3=C\c2[nH]ccc2C1=O [Ex. 143, [16a(17)Z]-19-chloro-2,5-dimethyl-6,7,9,10-tetrahydro-1H-12,14-(ethanediylidene)dipyrrolo[3,2-i:3′,4′-l][1,4,7]oxathiazacyclopentadecine-4,16(5H,15H)-dione]
						83	0.2	89	97	84	97	Cc1cc2c([nH]1)/C=C1\C(=O)Nc3ccc(cc31)-c1c(C)nn(C)c1COCCN(C)C2=O [Ex. 146, [3a(4)Z]-6,9,14,16-tetramethyl-10,11,13,14-tetrahydro-2H-1,17-(ethanediylidene)pyrazolo[4,3-m]dipyrrolo[3,2-f:3′,4′-i][1,4]oxazacyclopentadecine-3,8(5H,9H)-dione]
						100	13	92	100	8	69	Cc1nn(C)c2c1-c1ccc3c(c1)/C(=C/c1[nH]ccc1C(=O)N(C)CCCO2)C(=O)N3 [Ex. 150, [3a(4)Z]-9,14,16-trimethyl-10,11,13,14-tetrahydro-2H-1,17-(ethanediylidene)pyrazolo[4,3-m]dipyrrolo[3,2-f:3′,4′-i][1,4]oxazacyclopentadecine-3,8(5H,9H)-dione]
